Patent US11840524B2, “4-substituted phenyl-1,3,5-triazine derivatives as modulators of TrK receptors” (ALZECURE PHARMA AB, priority 2018, dated 2023)

Assays:
[1] = target: T1, TrkA (Homo sapiens, UniProt P04629); assay: Cell-based Enzyme Fragment Complementation (EFC) assay, U2OS cells over-expressing TrkA; conditions: compound pre-mixed with ligand (NGF), final ligand concentration 10 ng/mL, 3 hours at room temperature, read-out: TrkA potency expressed as EC50
T1 construct: expressed in transfected cells; host or cells: U2OS
T1 sequence (P04629 33-796): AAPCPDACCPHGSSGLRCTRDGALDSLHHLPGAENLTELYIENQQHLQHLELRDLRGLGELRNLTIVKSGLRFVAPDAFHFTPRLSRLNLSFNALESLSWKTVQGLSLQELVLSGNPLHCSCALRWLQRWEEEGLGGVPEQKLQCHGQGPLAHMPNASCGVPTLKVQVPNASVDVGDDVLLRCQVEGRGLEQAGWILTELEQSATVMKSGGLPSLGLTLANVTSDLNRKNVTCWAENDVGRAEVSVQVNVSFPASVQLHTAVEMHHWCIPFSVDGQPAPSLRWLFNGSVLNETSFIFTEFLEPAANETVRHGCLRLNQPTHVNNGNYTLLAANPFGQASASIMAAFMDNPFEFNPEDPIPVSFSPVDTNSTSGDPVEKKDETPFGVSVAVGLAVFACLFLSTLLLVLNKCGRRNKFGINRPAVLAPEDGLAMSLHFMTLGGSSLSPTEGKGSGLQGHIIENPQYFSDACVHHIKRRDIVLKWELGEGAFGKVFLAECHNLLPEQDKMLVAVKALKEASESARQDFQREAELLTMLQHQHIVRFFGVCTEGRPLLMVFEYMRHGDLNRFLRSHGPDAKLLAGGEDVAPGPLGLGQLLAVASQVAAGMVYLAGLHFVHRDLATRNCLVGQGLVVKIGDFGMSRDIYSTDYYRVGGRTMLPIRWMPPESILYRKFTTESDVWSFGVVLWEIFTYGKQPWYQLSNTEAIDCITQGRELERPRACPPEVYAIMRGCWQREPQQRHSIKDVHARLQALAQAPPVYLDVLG
Description: (§1) A high throughput cell-based screen has been used to identify positive modulators of TrkA, TrkB and TrkC. The screen involves the use of cell-based assay overexpressing TrkA, TrkB or TrkC. The purpose of the assay is to identify compounds that modulate neurotrophin signalling (Forsell et al 2012). The assay can be used in inhibitor mode using a high concentration of ligand, in modulator mode using an intermediate concentration and in agonist mode using a low concentration of ligand.
(§2) The assay uses Enzyme Fragment Complementation (EFC) technique, which is a proximity-based assay. Briefly, cells used in this assay over-express two fusion proteins, i.e. the receptor, which can be one of TrkA, TrkB or TrkC fused to a small peptide of beta-galactosidase and an adaptor protein, i.e. SHC1 (or any other Trk-adaptor protein) fused to the major part of beta-galactosidase. […] The proximity between the small activating peptide on the receptor and the major part of beta-galactosidase on the adaptor protein leads to an active beta-galactosidase enzyme. The activation of the receptor is quantified by measuring the amount of active beta-galactosidase by its conversion of a non-luminescent substrate into a luminescent product.
(§3) U2OS-cells, over-expressing TrkA or TrkB or TrkC, were plated in 96- or 384-well plates and incubated overnight. On the following day, test compound was pre-mixed with ligand (NGF) and the ligand-compound mixture is then added to the cells to yield a final ligand concentration of 10 ng/mL. After 3 hours of incubation at room temperature, the incubation is stopped by the addition of a beta-galactosidase substrate mixture containing detergents. The substrate mixture is incubated for 60 minutes at ambient temperature. The luminescence is thereafter read by the use of a plate reader.

[2] = target: T2, TrkB (Homo sapiens, UniProt Q16620); assay: Cell-based Enzyme Fragment Complementation (EFC) assay, U2OS cells over-expressing TrkB; conditions: compound pre-mixed with ligand, final ligand concentration 10 ng/mL, 3 hours at room temperature, read-out: TrkB potency expressed as EC50
T2 construct: expressed in transfected cells; host or cells: U2OS
T2 sequence (Q16620 32-822): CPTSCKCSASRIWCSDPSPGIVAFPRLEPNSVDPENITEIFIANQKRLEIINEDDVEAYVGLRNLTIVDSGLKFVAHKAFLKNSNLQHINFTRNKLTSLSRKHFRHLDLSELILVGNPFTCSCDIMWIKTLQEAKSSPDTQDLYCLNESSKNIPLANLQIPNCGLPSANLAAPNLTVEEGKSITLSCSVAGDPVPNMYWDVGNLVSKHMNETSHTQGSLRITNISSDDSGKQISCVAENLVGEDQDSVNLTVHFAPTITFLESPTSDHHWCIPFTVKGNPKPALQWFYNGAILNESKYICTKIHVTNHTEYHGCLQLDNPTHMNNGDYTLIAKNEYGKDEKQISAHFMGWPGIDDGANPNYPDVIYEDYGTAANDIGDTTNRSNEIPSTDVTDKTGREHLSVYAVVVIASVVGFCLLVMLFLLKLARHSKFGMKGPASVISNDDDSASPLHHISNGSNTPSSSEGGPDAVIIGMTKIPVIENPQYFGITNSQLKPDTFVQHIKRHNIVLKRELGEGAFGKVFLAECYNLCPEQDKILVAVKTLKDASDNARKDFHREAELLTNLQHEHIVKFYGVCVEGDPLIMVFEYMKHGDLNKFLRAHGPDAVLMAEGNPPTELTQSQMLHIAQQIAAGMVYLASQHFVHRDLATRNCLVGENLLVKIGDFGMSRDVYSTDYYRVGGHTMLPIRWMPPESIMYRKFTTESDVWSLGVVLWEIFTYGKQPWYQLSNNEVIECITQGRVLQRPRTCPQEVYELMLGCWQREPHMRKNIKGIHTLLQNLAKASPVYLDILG
Description: as §1, §2, §3

[3] = target: T3, TrkC (Homo sapiens, UniProt Q16288); assay: Cell-based Enzyme Fragment Complementation (EFC) assay, U2OS cells over-expressing TrkC; conditions: compound pre-mixed with ligand, final ligand concentration 10 ng/mL, 3 hours at room temperature, read-out: TrkC potency expressed as EC50
T3 construct: expressed in transfected cells; host or cells: U2OS
T3 sequence (Q16288 32-839): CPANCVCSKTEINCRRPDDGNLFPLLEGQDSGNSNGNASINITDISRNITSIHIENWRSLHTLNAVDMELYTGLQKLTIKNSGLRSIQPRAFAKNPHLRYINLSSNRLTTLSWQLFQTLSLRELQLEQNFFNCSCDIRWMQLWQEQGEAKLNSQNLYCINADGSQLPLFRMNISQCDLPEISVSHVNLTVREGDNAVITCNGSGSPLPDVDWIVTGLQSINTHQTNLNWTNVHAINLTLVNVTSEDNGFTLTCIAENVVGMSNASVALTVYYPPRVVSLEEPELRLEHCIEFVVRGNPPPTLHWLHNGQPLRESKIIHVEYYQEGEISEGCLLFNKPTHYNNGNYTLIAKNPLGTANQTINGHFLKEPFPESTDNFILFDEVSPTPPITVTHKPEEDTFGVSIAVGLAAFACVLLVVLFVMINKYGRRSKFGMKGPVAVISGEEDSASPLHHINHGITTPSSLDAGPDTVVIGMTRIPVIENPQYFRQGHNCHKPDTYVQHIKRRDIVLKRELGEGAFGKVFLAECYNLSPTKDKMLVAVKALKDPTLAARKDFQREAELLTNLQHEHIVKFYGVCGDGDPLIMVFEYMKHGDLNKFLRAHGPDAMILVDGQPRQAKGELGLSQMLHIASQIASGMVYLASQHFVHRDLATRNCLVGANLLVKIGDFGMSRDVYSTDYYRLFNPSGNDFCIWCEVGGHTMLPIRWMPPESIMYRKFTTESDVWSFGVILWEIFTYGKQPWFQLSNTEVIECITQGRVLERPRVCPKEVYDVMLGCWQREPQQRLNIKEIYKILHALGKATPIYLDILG
Description: as §1, §2
U2OS-cells, over-expressing TrkA or TrkB or TrkC, were plated in 96- or 384-well plates and incubated overnight. […] The luminescence is thereafter read by the use of a plate reader.

[4] = test system: ephrin type-B receptor 2 (EphB2); conditions: Suzuki et al., FEBS Open Bio 2016; cited from earlier work

For “1-{3-[(4-methyl-1H-imidazol-1-yl)methyl]-4-phenoxyphenyl}-3-(3-methylphenyl)-1,3,5-triazinane-2,4,6-trione+1-{3-[(5-methyl-1H-imidazol-1-yl)methyl]-4-phenoxyphenyl}-3-(3-methylphenyl)-1,3,5-triazinane-2,4,6-trione [Example 11]”, the EC50 [1] was 220 nM and the EC50 [2] was 140 nM.
`O=c1[nH]c(=O)n(-c2ccc(Oc3ccccc3)c(Cn3cccn3)c2)c(=O)n1-c1ccccc1` [Example 1, 1-{4-phenoxy-3-[(1H-pyrazol-1-yl)methyl]phenyl}-3-phenyl-1,3,5-triazinane-2,4,6-trione] showed an EC50 [1] of 160 nM, an EC50 [2] of 200 nM and an EC50 [3] of 120 nM.
Work on `O=c1[nH]c(=O)n(-c2ccc(Oc3ccccc3)c(Cn3ccnc3)c2)c(=O)n1-c1ccccc1` [Example 2, 1-{3-[(1H-imidazol-1-yl)methyl]-4-phenoxyphenyl}-3-phenyl-1,3,5-triazinane-2,4,6-trione] yielded an EC50 [1] of 380 nM, an EC50 [2] of 270 nM and an EC50 [3] of 200 nM.
With `O=c1[nH]c(=O)n(-c2ccc(Oc3ccccc3)c(Cn3cncn3)c2)c(=O)n1-c1ccccc1` [Example 3, 1-{4-phenoxy-3-[(1H-1,2,4-triazol-1-yl)methyl]phenyl}-3-phenyl-1,3,5-triazinane-2,4,6-trione] the EC50 [1] was 520 nM and the EC50 [2] was 810 nM.
Work on `CCc1ccc(Oc2ccc(-n3c(=O)[nH]c(=O)n(C)c3=O)cc2Cn2cccn2)cc1` [Example 4, 1-[4-(4-ethylphenoxy)-3-[(1H-pyrazol-1-yl)methyl]phenyl]-3-methyl-1,3,5-triazinane-2,4,6-trione] yielded an EC50 [1] of 1100 nM and an EC50 [2] of 2070 nM.
Work on `Cn1c(=O)[nH]c(=O)n(-c2ccc(-c3ccccc3)c(Cn3cccn3)c2)c1=O` [Example 5, 1-methyl-3-{2-[(1H-pyrazol-1-yl)methyl]-[1,1′-biphenyl]-4-yl}-1,3,5-triazinane-2,4,6-trione] yielded an EC50 [1] of 1320 nM and an EC50 [2] of 31000 nM.
`Cc1cccc(-n2c(=O)[nH]c(=O)n(-c3ccc(Oc4ccccc4)c(Cn4ccnc4)c3)c2=O)c1` [Example 6, 1-{3-[(1H-imidazol-1-yl)methyl]-4-phenoxyphenyl}-3-(3-methylphenyl)-1,3,5-triazinane-2,4,6-trione] gave an EC50 [1] of 160 nM and an EC50 [2] of 200 nM.
Work on `COc1ccc(-n2c(=O)[nH]c(=O)n(-c3ccc(Oc4ccccc4)c(Cn4ccnc4)c3)c2=O)cc1` [Example 7, 1-{3-[(1H-imidazol-1-yl)methyl]-4-phenoxyphenyl}-3-(4-methoxyphenyl)-1,3,5-triazinane-2,4,6-trione] yielded an EC50 [1] of 720 nM and an EC50 [2] of 450 nM.
`Cc1cccc(-n2c(=O)[nH]c(=O)n(-c3ccc(Oc4ccc(F)cc4)c(Cn4ccnc4)c3)c2=O)c1` [Example 8, 1-[4-(4-fluorophenoxy)-3-[(1H-imidazol-1-yl)methyl]phenyl]-3-(3-methylphenyl)-1,3,5-triazinane-2,4,6-trione] showed an EC50 [1] of 190 nM and an EC50 [2] of 170 nM.
In the case of `Cc1cccc(-n2c(=O)[nH]c(=O)n(-c3ccc(Oc4ccccc4)c(OCc4ncc[nH]4)c3)c2=O)c1` [Example 9, 1-{3-[(1H-imidazol-2-yl)methoxy]-4-phenoxyphenyl}-3-(3-methylphenyl)-1,3,5-triazinane-2,4,6-trione], the EC50 [1] is reported as 250 nM and the EC50 [2] is reported as 120 nM.
Work on `Cc1cccc(-n2c(=O)[nH]c(=O)n(-c3ccc(Oc4ccccc4)c(OCc4cnc[nH]4)c3)c2=O)c1` [Example 10, 1-{3-[(1H-imidazol-5-yl)methoxy]-4-phenoxyphenyl}-3-(3-methylphenyl)-1,3,5-triazinane-2,4,6-trione] yielded an EC50 [1] of 1670 nM and an EC50 [2] of 12000 nM.
`Cc1cccc(-n2c(=O)[nH]c(=O)n(-c3ccc(Oc4ccccc4)c(Cn4cnc(F)c4)c3)c2=O)c1` [Example 12, 1-{3-[(4-fluoro-1H-imidazol-1-yl)methyl]-4-phenoxyphenyl}-3-(3-methylphenyl)-1,3,5-triazinane-2,4,6-trione] gave an EC50 [1] of 100 nM and an EC50 [2] of 60 nM.
`Cc1cccc(-n2c(=O)[nH]c(=O)n(-c3ccc(Oc4ccccc4)c(-n4cnc(C)c4)c3)c2=O)c1` [Example 13, 1-[3-(4-methyl-1H-imidazol-1-yl)-4-phenoxyphenyl]-3-(3-methylphenyl)-1,3,5-triazinane-2,4,6-trione] gave an EC50 [1] of 650 nM and an EC50 [2] of 470 nM.
`O=c1[nH]c(=O)n(-c2ccc(Oc3ccccc3)c(Cn3cc(F)cn3)c2)c(=O)n1-c1ccccc1` [Example 14, 1-{3-[(4-fluoro-1H-pyrazol-1-yl)methyl]-4-phenoxyphenyl}-3-phenyl-1,3,5-triazinane-2,4,6-trione] gave an EC50 [1] of 180 nM and an EC50 [2] of 180 nM.
Compound `Cc1cccc(-n2c(=O)[nH]c(=O)n(-c3ccc(Oc4ccccc4)c(Cn4cc(F)cn4)c3)c2=O)c1` [Example 15, 1-{3-[(4-fluoro-1H-pyrazol-1-yl)methyl]-4-phenoxyphenyl}-3-(3-methylphenyl)-1,3,5-triazinane-2,4,6-trione] has an EC50 [1] of 120 nM and an EC50 [2] of 90 nM.
With `CCn1cc(Cc2cc(-n3c(=O)[nH]c(=O)n(-c4ccccc4)c3=O)ccc2Oc2ccccc2)cn1` [Example 16, 1-{3-[(1-ethyl-1H-pyrazol-4-yl)methyl]-4-phenoxyphenyl}-3-phenyl-1,3,5-triazinane-2,4,6-trione] the EC50 [1] was 180 nM and the EC50 [2] was 170 nM.
For `Cc1cc(-n2c(=O)[nH]c(=O)n(C)c2=O)ccc1Oc1ccc(SC(F)(F)F)cc1` [toltrazuril, 1-methyl-3-(3-methyl-4-{4-[(trifluoromethyl)sulfanyl]phenoxy}phenyl)-1,3,5-triazinane-2,4,6-trione], the “inhibition of the binding of β-amyloid oligomers to EphB2” value [4] is given as 30%.
